Drawing on ChEMBL document CHEMBL5385978, “Discovery of novel SOS1 inhibitors using machine learning” (RSC Med Chem, 2024), this text covers inhibition for 2 compounds.

For the assay, the system named is SOS1-KRAS (Homo sapiens), Q07889+P01116 [G12C]. Put plainly: Inhibition of his tagged SOS1/GST-tagged KRAS G12C mutant (unknown origin) protein-protein interaction at 25 ug/ml incubated for 2 hrs by HTRF assay relative to control. The settings on record: dose 25.0 µg/ml. The assay is classed as protein-complex assay.

Compound `CC(C)CCN1CCCN(c2nc(Cc3ccccc3)nc3c2ncn3-c2ccccc2)CC1` showed an inhibition of 2.1%. As for `CC(C)OCCCNC1CCN(c2ncc(NC(=O)c3ccccc3)cc2C(=O)O)CC1`, the figure is 6.3%.
